Experimental data taken from PubChem BioAssay (NCI).
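Assay format: 96-well plates, 48-hour exposure. TGI: concentration producing complete growth inhibition.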

What was measured:
Test in all cases: NCI tumour cell line growth inhibition, 48 h
[1] = test system: NCI-H522 lung
[2] = test system: SF-295 CNS
[3] = test system: OVCAR-3 ovarian
[4] = test system: K-562 leukemia
[5] = test system: DLD-1 colon
[6] = test system: A549 NSCLC
[7] = test system: CCRF-CEM leukemia
[8] = test system: CAKI-1 renal
[9] = test system: MOLT-4 leukemia
[10] = test system: HOP-62 NSCLC
[11] = test system: LOX IMVI melanoma
[12] = test system: 786-0 renal
[13] = test system: HOP-92 NSCLC
[14] = test system: UACC-62 melanoma
[15] = test system: RXF 393 renal
[16] = test system: IGROV1 ovarian
[17] = test system: OVCAR-8 ovarian
[18] = test system: KM20L2 colon
[19] = test system: MALME-3M melanoma
[20] = test system: SK-MEL-5 melanoma
[21] = test system: SK-OV-3 ovarian
[22] = test system: SW-620 colon
[23] = test system: EKVX NSCLC
[24] = test system: HL-60(TB) leukemia
[25] = test system: SNB-19 CNS
[26] = test system: SNB-78 CNS
[27] = test system: DMS 114 small cell lung
[28] = test system: SN12C renal
[29] = test system: OVCAR-5 ovarian
[30] = test system: M19-MEL melanoma
[31] = test system: SF-539 CNS
[32] = test system: HCT-116 colon
[33] = test system: SK-MEL-28 melanoma
[34] = test system: HCT-15 colon
[35] = test system: LXFL 529 NSCLC
[36] = test system: NCI-H23 lung
[37] = test system: HCC-2998 colon
[38] = test system: RPMI-8226 leukemia
[39] = test system: NCI-H460 lung
[40] = test system: SK-MEL-2 melanoma
[41] = test system: M14 melanoma
[42] = test system: DMS 273 small cell lung
[43] = test system: ACHN renal
[44] = test system: U251 CNS
[45] = test system: COLO 205 colon
[46] = test system: SR leukemia
[47] = test system: TK-10 renal
[48] = test system: SNB-75 CNS
[49] = test system: HT29 colon
[50] = test system: HOP-18 NSCLC
[51] = test system: KM12 colon
[52] = test system: NCI-H226 lung
[53] = test system: UO-31 renal
[54] = test system: SF-268 CNS
[55] = test system: A498 renal
[56] = test system: UACC-257 melanoma
[57] = test system: OVCAR-4 ovarian

Measured: TGI

[N-]=[N+]=NC(c1cn(C2CC(O)C(CO)O2)c(=O)[nH]c1=O)C(Br)Br (centres undefined)
not listed: [54] | [55] | [56] | [57]
> 100 µM: all other assays above

O=c1cc(CO)oc2c3c(cc(O)c12)OCC(COC1OC(CO)C(O)C(O)C1O)=CC3 (centres undefined)
not listed: [19]
> 100 µM: all other assays above
